{"source": "ChEMBL document CHEMBL4495565", "about": "“Cytopathic SARS-Cov2 screening on VERO-E6 cells in a large repurposing effort” (2020)", "key": {"[1]": {"tested_on": "SARS-CoV-2", "assay": "microbe, parasite or virus in culture", "format": "functional, organism-based, Chlorocebus sabaeus, Vero C1008"}, "[2]": {"assay": "in vitro", "details": "chlorocebus sabaeus, VERO-E6 cells (Vero C1008), uninfected, CC50"}, "[3]": {"tested_on": "Vero C1008", "details": "chlorocebus sabaeus, vero c1008, 48 h"}, "[4]": {"tested_on": "SARS-CoV-2", "details": "Chlorocebus sabaeus; Vero C1008; 10 uM"}, "[5]": {"assay": "in vitro", "details": "chlorocebus sabaeus, VERO-E6 cells, Selectivity index"}, "[6]": {"details": "Severe acute respiratory syndrome coronavirus 2, Vero C1008, 48 h"}}, "note": "“And” between values parts separate entries of the source, which are not always exact repeats. Equal values may be shown once. Where a name gives a salt, the structure may show the parent alone. Peptide text beside a SMILES is read from it. * marks the point of attachment. Cbz = O=C(OCc1ccccc1)*"}
{"compound": "COc1cc2c(NC3CCN(C4CCCCC4)CC3)nc(N3CCCN(C(C)C)CC3)nc2cc1OCCCN1CCCCC1", "values": [{"measurement": "IC50", "setting": "[1]; vero c1008", "value": "> 33", "unit": "µM"}, {"measurement": "CC50 at 48 h", "setting": "[2]", "value": "> 33", "unit": "µM"}, {"measurement": "CC50", "setting": "[3]", "value": 18.6, "unit": "µM"}]}
{"compound": "ESCIN", "values": [{"measurement": "inhibition", "setting": "[4]", "value": -0.23, "unit": "%"}]}
{"compound": "VANADATE ION", "values": [{"measurement": "inhibition", "setting": "[4]", "value": 0.02, "unit": "%"}]}
{"compound": "NYSTATIN", "values": [{"measurement": "inhibition", "setting": "[4]", "value": 0.08, "unit": "%"}]}
{"compound": "CNC(=O)c1cc(Oc2ccc(NC(=O)Nc3ccc(Cl)c(C(F)(F)F)c3)c(F)c2)ccn1", "note": "[REGORAFENIB]", "values": [{"measurement": "IC50", "setting": "[1]; [6]", "value": "> 33", "unit": "µM"}, {"measurement": "IC50", "setting": "[1]; vero c1008", "value": 24.9, "unit": "µM"}, {"measurement": "CC50", "setting": "[3]", "value": "> 33 µM and 8.31 µM"}]}
{"compound": "CC(C)(C)c1cc(C=C(C#N)C#N)cc(C(C)(C)C)c1O", "note": "[TYRPHOSTIN A9]", "values": [{"measurement": "IC50", "setting": "[1]; vero c1008", "value": "> 33", "unit": "µM"}, {"measurement": "CC50", "setting": "[3]", "value": "7.99 µM and 1.27 µM"}]}
{"compound": "GADOTERIDOL", "values": [{"measurement": "inhibition", "setting": "[4]", "value": -0.08, "unit": "%"}]}
{"compound": "Sodium orthovanadate", "values": [{"measurement": "inhibition", "setting": "[4]", "value": 0.13, "unit": "%"}]}
{"compound": "Auranofin", "values": [{"measurement": "inhibition", "setting": "[4]", "value": -0.39, "unit": "%"}]}
{"compound": "Cc1cc(Nc2cc(N3CCN(C)CC3)nc(Sc3ccc(NC(=O)C4CC4)cc3)n2)n[nH]1", "values": [{"measurement": "inhibition", "setting": "[4]", "value": 0.28, "unit": "%"}]}
{"compound": "PHENYLMERCURIC ACETATE", "values": [{"measurement": "inhibition", "setting": "[4]", "value": -0.23, "unit": "%"}]}
{"compound": "CYANOCOBALAMIN", "values": [{"measurement": "inhibition", "setting": "[4]", "value": 0.04, "unit": "%"}]}
{"compound": "COc1ccc(-c2cc3c(C)nc(N)nc3n([C@H]3CC[C@H](OCCO)CC3)c2=O)cn1", "note": "[PF-04691502]", "values": [{"measurement": "IC50", "setting": "[1]; [6]", "value": 0.55, "unit": "µM"}, {"measurement": "IC50", "setting": "[1]; vero c1008", "value": 0.8, "unit": "µM"}, {"measurement": "CC50", "setting": "[3]", "value": "0.32 µM and 0.09 µM"}]}
{"compound": "TOCOFERSOLAN", "values": [{"measurement": "inhibition", "setting": "[4]", "value": 41.8, "unit": "%"}]}
{"compound": "VITAMIN E", "values": [{"measurement": "inhibition", "setting": "[4]", "value": "0.25% (2×) and -0.04% (2×)"}]}
{"compound": "hemin", "values": [{"measurement": "inhibition", "setting": "[4]", "value": -0.12, "unit": "%"}]}
{"compound": "CC(=O)[C@]1(O)Cc2c(O)c3c(c(O)c2[C@@H](O[C@H]2C[C@H](N)[C@H](O)[C@H](C)O2)C1)C(=O)c1ccccc1C3=O", "note": "[IDARUBICIN]", "values": [{"measurement": "CC50", "setting": "[3]", "value": 0.2, "unit": "µM"}]}
{"compound": "CETRIMONIUM BROMIDE", "values": [{"measurement": "inhibition", "setting": "[4]", "value": 0.3, "unit": "%"}]}
{"compound": "CC(C)C[C@@H](C=O)NC(=O)[C@H](CC(C)C)NC(=O)[C@H](CC(C)C)NC(=O)OCc1ccccc1", "note": "[MG-132] (Cbz-Leu-Leu-Leu-aldehyde)", "values": [{"measurement": "IC50", "setting": "[1]; vero c1008", "value": 0.99, "unit": "µM"}, {"measurement": "CC50 at 48 h", "setting": "[2]", "value": 2.9, "unit": "µM"}, {"measurement": "CC50", "setting": "[3]", "value": 3.04, "unit": "µM"}]}
{"compound": "ACRIFLAVINE HYDROCHLORIDE", "values": [{"measurement": "inhibition", "setting": "[4]", "value": -0.35, "unit": "%"}]}
{"compound": "CC(=O)OC[C@]12CCC(C)=C[C@H]1O[C@@H]1[C@H](O)[C@@H](OC(C)=O)[C@@]2(C)[C@@]12CO2", "values": [{"measurement": "inhibition", "setting": "[4]", "value": -0.2, "unit": "%"}]}
{"compound": "O=C(c1c2ccccc2cc2ccccc12)N1CCC(N2CCC[C@@H](C(=O)N3CCOCC3)C2)CC1", "values": [{"measurement": "CC50 at 48 h", "setting": "[2]", "value": 10.2, "unit": "µM"}, {"measurement": "CC50", "setting": "[3]", "value": 10.9, "unit": "µM"}]}
{"compound": "CNCc1ccc(-c2cc(-c3nc(-c4ccc(S(=O)(=O)C(C)C)cc4)cnc3N)on2)cc1", "note": "[BERZOSERTIB]", "values": [{"measurement": "IC50", "setting": "[1]; vero c1008", "value": 3.54, "unit": "µM"}, {"measurement": "CC50", "setting": "[3]", "value": "10 µM and > 33 µM"}]}
{"compound": "AUROTHIOGLUCOSE", "values": [{"measurement": "inhibition", "setting": "[4]", "value": -0.05, "unit": "%"}]}
{"compound": "MERBROMIN", "values": [{"measurement": "inhibition", "setting": "[4]", "value": 0, "unit": "%"}]}
{"compound": "Nc1nc2nn[nH]c2c(=O)[nH]1", "note": "[8-AZAGUANINE]", "values": [{"measurement": "IC50", "setting": "[1]; vero c1008", "value": "3.72 µM and 10.3 µM"}, {"measurement": "CC50 at 48 h", "setting": "[2]", "value": 10.4, "unit": "µM"}, {"measurement": "CC50", "setting": "[3]", "value": 11.2, "unit": "µM"}]}
{"compound": "COLISTIMETHATE SODIUM", "values": [{"measurement": "inhibition", "setting": "[4]", "value": -0.25, "unit": "%"}]}
{"compound": "Vitamin B12", "values": [{"measurement": "inhibition", "setting": "[4]", "value": 0.12, "unit": "%"}]}
{"compound": "CC(=O)[C@]1(O)Cc2c(O)c3c(c(O)c2[C@@H](O[C@H]2C[C@H](N)[C@H](O)[C@H](C)O2)C1)C(=O)c1ccccc1C3=O", "note": "[IDARUBICIN HYDROCHLORIDE]", "values": [{"measurement": "CC50", "setting": "[3]", "value": 0.41, "unit": "µM"}]}
{"compound": "Cc1[nH]c(/C=C2\\C(=O)Nc3ccc(S(=O)(=O)N(C)c4cccc(Cl)c4)cc32)c(C)c1C(=O)N1CCN(C)CC1", "values": [{"measurement": "IC50", "setting": "[1]; [6]", "value": 10.9, "unit": "µM"}, {"measurement": "CC50 at 48 h", "setting": "[2]", "value": 10.4, "unit": "µM"}, {"measurement": "selectivity ratio", "setting": "[5]", "value": 0.96}]}
